Source: patent US8785459B2, “Quinazoline compounds as kinase inhibitors” (Development Center for Biotechnology, priority 2011, dated 2014)

How the values were obtained:
EGFR kinase = EGFR kinase (Homo sapiens (Human), UniProt P00533); test: EGFR kinase assay; format: biochemical
Description: Inhibition of EGFR kinase activity by compounds disclosed herein is quantified by measuring the amount of [^33P] incorporated into the substrate in the presence of a test compound. Briefly, a reaction mixture of 25 μL final volume containing 25 ng of EGFR kinase (EGFR kinase domain alone, Millipore), 3 μg of the substrate [poly(Glu-Tyr), Sigma], kinase reaction buffer (10 mM MOPS pH 7.0, 0.3 mM EDTA, 0.5% glycerol, 0.001% Brij-35, 10 mM MnCl2, 0.1 mg/ml BSA, 100 μM ATP, 0.1 μCi per well [^33P]-γ-ATP (2,500-3,000 Ci/mmol)), and a test compound (100 nM, diluted with 4% DMSO) or DMSO (as the control) was incubated at 30° C. for 30 minutes. The reaction was stopped by adding 5 μL of 3% phosphoric acid solution. The resultant reaction solution was then harvested onto a filter plate (UniFilter-96 GF/B, PerkinElmer), washed 20 times for 5 min with d.d. H2O, and followed by the addition of 30 μL of MicroScint™-20 Cocktail (PerkinElmer). The radioactivity retained on the filter membrane was measured by TopCount™ scintillation detector (PerkinElmer). The results were analyzed by using linear regression software (GraphPad Prism™ 4; GraphPad Software Inc.). IC50 value is defined as the concentration of the test compound which achieves a half-maximal inhibition of the kinase activity.

EGFR (T790M) kinase = EGFR (T790M) kinase (Homo sapiens (Human), UniProt P00533, T790M); test: EGFR (T790M) kinase assay; format: biochemical
Sequence of EGFR (T790M) kinase (P00533 712-979 T790M): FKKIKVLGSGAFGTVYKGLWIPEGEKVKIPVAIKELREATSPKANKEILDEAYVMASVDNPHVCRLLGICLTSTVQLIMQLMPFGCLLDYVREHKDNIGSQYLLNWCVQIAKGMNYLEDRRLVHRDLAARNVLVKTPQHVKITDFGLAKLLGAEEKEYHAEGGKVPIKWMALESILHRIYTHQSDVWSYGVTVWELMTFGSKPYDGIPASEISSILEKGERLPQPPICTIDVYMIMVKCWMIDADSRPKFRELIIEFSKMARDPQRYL
Description: C. EGFR (T790M) Kinase Assay
Inhibition of EGFR (T790M) kinase activity by compounds disclosed herein was quantified by measuring the amount of [^33P] incorporated into the substrate in the presence of a test compound. Briefly, a reaction mixture of 25 μL final volume containing 25 ng of EGFR (T790M) kinase (EGFR (T790M) kinase domain alone, Millipore), 5 μg of the substrate [poly(Glu-Tyr), Sigma], kinase reaction buffer (10 mM MOPS pH 7.0, 0.3 mM EDTA, 0.5% glycerol, 0.001% Brij-35, 10 mM MnCl2, 0.1 mg/ml BSA, 100 μM ATP, 0.1 μCi per well [^33P]-γ-ATP (2,500-3,000 Ci/mmol)), and a test compound (100 nM; diluted with 4% DMSO) or DMSO (as the control) was incubated at 30° C. for 60 minutes. The reaction was stopped by adding 5 μL of 3% phosphoric acid solution. The resultant reaction solution was then harvested onto a filter plate (UniFilter-96 GF/B, PerkinElmer), washed 20 times for 5 min with d.d. […] The radioactivity retained on the filter membrane was measured by TopCount™ scintillation detector (PerkinElmer). The results were analyzed by using linear regression software (GraphPad Prism™ 4; GraphPad Software Inc.). The percentage of inhibition of EGFR (T790M) by the test compound was calculated by dividing the retained radioactivity of the test sample with the retained radioactivity of the control sample and shown in Table 4.

FGFR1 kinase = FGFR1 kinase (Homo sapiens (Human), UniProt P11362); test: FGFR1 kinase assay; format: biochemical
Sequence of FGFR1 kinase (P11362 478-767): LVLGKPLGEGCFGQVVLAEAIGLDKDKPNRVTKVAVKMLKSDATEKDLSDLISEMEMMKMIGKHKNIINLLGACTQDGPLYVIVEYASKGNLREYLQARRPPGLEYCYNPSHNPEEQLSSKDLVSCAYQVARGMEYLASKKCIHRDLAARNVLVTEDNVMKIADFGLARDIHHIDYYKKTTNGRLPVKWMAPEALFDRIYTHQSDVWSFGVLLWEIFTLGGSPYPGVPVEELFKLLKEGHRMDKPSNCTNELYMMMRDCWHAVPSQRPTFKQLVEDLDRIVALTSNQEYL
Description: Inhibition of FGFR1 kinase activity by compounds disclosed herein was quantified by measuring the amount of [^33P] incorporated into the substrate in the presence of a test compound. Briefly, a reaction mixture of 25 μL final volume containing 1 ng of FGFR1 kinase (FGFR1 kinase domain alone, Millipore), 5 μg of the substrate [poly(Glu-Tyr), Sigma], kinase reaction buffer (14 mM MOPS pH 7.0, 0.2 mM EDTA, 0.5% glycerol, 0.001% Brij-35, 0.01% β-mercaptoethanol, 0.1 mg/ml BSA, 100 μM ATP, 0.1 μCi per well [^33P]-γ-ATP (2,500-3,000 Ci/mmol)), and a test compound (100 nM, diluted with 4% DMSO) or DMSO (as the control) was incubated at 30° C. for 60 minutes. The reaction was stopped by adding 5 μL of 3% phosphoric acid solution. The resultant reaction solution was then harvested onto a filter plate (UniFilter-96 GF/B, PerkinElmer), washed 20 times for 5 min with d.d. H2O, and followed by the addition of 30 μL of MicroScint™-20 Cocktail (PerkinElmer). The radioactivity retained on the filter membrane was measured by TopCount™ scintillation detector (PerkinElmer). The results were analyzed by using linear regression software (GraphPad Prism™ 4; GraphPad Software Inc.). IC50 value is defined as the concentration of the test compound which achieves a half-maximal inhibition of the kinase activity.

A549 = test: Anti-proliferative activity, CellTiter-96 assay, A549; format: cell-based; conditions: Homo sapiens, A549 cells, 72 hours incubation
In short: (§1)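 Cells in DMEM with 10% FCS at 37° C., 5% CO2, plated at 2000 cells/well for 24 h, then exposed to graded compound concentrations for 72 h. CellTiter-96 Aqueous One reagent added for 4.0 h; viability read as absorbance at 490 nm.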

MDA-MB-231 = test: Anti-proliferative activity, CellTiter-96 assay, MDA-MB-231; format: cell-based; conditions: Homo sapiens, MDA-MB-231 cells, 72 hours incubation
In short: as §1

A375 tumor cells = test: In vivo anti-cancer activity, subcutaneous A375 tumor in NOD/SCID mice; conditions: A375 xenograft, 50 mg/kg i.p. qd x 28
Description: (§2) In Vivo Anti-Cancer Activities
(§3) A375 (1×10^6 cell/mouse) tumor cells were subcutaneously injected into the right flank of 5 week old male NOD/SCID mice (BioLASCO, Taiwan). Tumor volume was measured with a digital caliper once tumor was palpable (within 10 to 15 days after implantation). Compound treatment was started after 1-3 weeks when the tumors had reached an average volume of ˜50 to 100 mm^3. Mice were divided into 5 groups as listed in Table 6 below and were given intraperitoneal injections with the test compound at 50 mg/kg, or vehicle control (DMSO:Cremophor:PBS (pH 7.4)=[…]) one time every day. The test compound, 58, was formulated in a solution of 5% DMSO, 10% Cremophor, and 85% PBS. The positive control, PLX4032, was dissolved in 100% PBS. Body weights of the mice were measured every two to three days and the tumor sizes in different groups of mice were measured by digital caliper every two to three days.

[1] = Body weight of A375 tumor-bearing NOD/SCID mice under treatment; format: in vivo; conditions: A375 xenograft, 50 mg/kg i.p. qd x 28
Description: as §2, §3

Sequence of EGFR kinase (P00533 712-979): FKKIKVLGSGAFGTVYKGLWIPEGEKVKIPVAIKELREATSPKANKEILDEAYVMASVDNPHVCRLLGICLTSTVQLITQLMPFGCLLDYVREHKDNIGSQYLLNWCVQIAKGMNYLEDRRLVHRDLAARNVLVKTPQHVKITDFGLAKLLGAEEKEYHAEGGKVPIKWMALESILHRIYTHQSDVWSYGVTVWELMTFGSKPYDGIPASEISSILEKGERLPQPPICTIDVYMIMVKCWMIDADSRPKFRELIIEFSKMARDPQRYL

COc1cc(-c2ccc3ncnc(Nc4cccc(O)c4)c3c2)ccc1O [Compound 8, 4-(4-(3-hydroxyphenylamino)quinazolin-6-yl)-2-methoxyphenol]
IC50 (EGFR kinase): 18.7 nM
inhibition at 1 µM (EGFR (T790M) kinase): 66%
IC50 (FGFR1 kinase): 413 nM
IC50 (A549): 1100 ± 100 nM
IC50 (MDA-MB-231): 1500 ± 100 nM

COc1cc(-c2ccc3ncnc(Nc4cc(O)ccc4F)c3c2)ccc1O [Compound 58, 4-(4-(2-fluoro-5-hydroxyphenylamino)quinazolin-6-yl)-2-methoxyphenol]
IC50 (EGFR kinase): 14.9 nM
inhibition at 1 µM (EGFR (T790M) kinase): 60%
IC50 (FGFR1 kinase): 131 nM
IC50 (A549): 500 ± 200 nM
IC50 (MDA-MB-231): 800 ± 300 nM
tumor growth in vivo (A375 tumor cells): inhibited tumor growth in vivo
weight loss [1]: without inducing significant weight loss
